# Patent US20150342933A1, “APORPHINE ALKALOID DERIVATIVE FOR […]-DEPENDENT PROTEIN KINASE” (ZIH YUAN TANG Biotechnology Co., Ltd, priority 2014, published 2015)
# Test system: AMPK
# Assay: AMPK phosphorylation in C2C12 myocytes (Western blot, Phospho-AMPKα Thr172)
# Assay type: cell-based, mouse
# Experimental: C2C12 skeletal myoblast cell line was purchased from the Food Industry Research and Development Institute (Hsinchu, Taiwan). The C2C12 cell line was a cell line obtained from culturing the leg skeletal muscle of adult C3H mice in a cell incubator under 95% […], 5% CO2, and 37° C. The cells were cultured in a DMEM medium (Gibco/Invitrogen, Carlsbad, Calif.) containing 4.5 mg/mL glucose, 10% fetal bovine serum (FBS; Gibco/Invitrogen, Carlsbad, Calif.), and an antibiotic solution (with final concentrations of penicillin=100 IU/mL and streptomycin=100 μg/mL). When the C2C12 myoblast cells have proliferated to cover seven-tenths of the area in the petri dish, the fetal bovine serum was replaced by 2% horse serum (Gibco/Invitrogen, Carlsbad, Calif.) so as to induce the C2C12 myoblast cells to become the multi-nuclei myocytes. The C2C12 myoblast cells differentiated into myocytes in 4 days, and the culture medium of the cells was replaced with no-serum DMEM 24 hours before the experiments so as to reduce metabolism of the cells.
# The C2C12 myocytes were treated respectively with 1 μM, 3 μM and 10 μM 1,10-dihydroxyaporphine hydrobromide for 5 and 15 minutes. Then the C2C12 myocytes were rinsed with PBS buffer solution, and RIPA buffer solution containing protease inhibitors (20 mM Tris-HCl (pH 7.4), 100 mM NaCl, 1 mM EDTA, 1 mM EGTA, 0.1% SDS, 0.5% sodium deoxycholate, 1% NP-40, and 100× protease inhibitor cocktail) was added into the cells. The cells were collected and centrifuged on ice. Then, the concentrations of the supernatant samples were adjusted to be the same.
# The supernatant samples were put through vertical electrophoresis isolation with 8% SDS-PAGE, and the isolated proteins were transferred onto a PVDF blotting membrane. After blotting was completed, the PVDF blotting membrane was removed and blocked for 1 hour under room temperature with a blocking buffer of TBST (Tris-buffered saline with Tween-20) with 5% non-fat milk. Then, the PVDF blotting membrane was placed into a 5% BSA and TBST solution containing the primary monoclonal antibodies Phospho-AMPKα (Thr172) (Cell Signaling) (1:1000) and AMPKα […] (Cell Signaling) (1:1000), respectively, and the primary immunoblotting reaction was performed under 4° C. Then, the PVDF blotting membrane was rinsed 3 times with TBST, and a TBST solution containing the secondary antibody goat anti-rabbit IgG (Perkin Elmer) (1:10000) was added to perform the secondary reaction for one hour under room temperature. Finally, the membrane was rinsed 3 times with TBST before ECL (enhanced chemiluminescence) was added to present color.
smiles,measurement,setting,value
"Br.CN1CCc2ccc(O)c3c2C1Cc1ccc(O)cc1-3 (stereo not shown) [1,10-dihydroxyaporphine hydrobromide]","AMPK phosphorylation, times of that in the control cells","3 μM, 5 minutes",1.33 times
same,"AMPK phosphorylation, times of that in the control cells","3 μM, 15 minutes",1.21 times
same,"AMPK phosphorylation, times of that in the control cells","10 μM, 5 minutes",1.23 times
same,"AMPK phosphorylation, times of that in the control cells","10 μM, 15 minutes",1.65 times
